From patent US10544147B2, “Purine inhibitors of human phosphatidylinositol 3-kinase delta” (MERCK SHARP & DOHME CORP., priority 2016, dated 2020) come the findings set out here.

One assay addresses PI3Kdelta (Homo sapiens (Human), UniProt O00329). Description: HTRF PI3K biochemical assay, delta isoform. The following applies: 0.3 nM enzyme, 100 uM ATP, 50 uM PIP2; form screened (neutral or TFA salt). (In general: In TR-FRET formats the signal depends on donor and acceptor labels being close together.)
Another assay addresses PI3Kalpha (Homo sapiens (Human), UniProt P42336). The assay is described as follows: HTRF PI3K biochemical assay, alpha isoform (selectivity versus delta). The following applies: ratio PI3K-alpha IC50 value/PI3K-delta IC50 value.

Chain of PI3Kdelta (O00329 whole entry, canonical isoform): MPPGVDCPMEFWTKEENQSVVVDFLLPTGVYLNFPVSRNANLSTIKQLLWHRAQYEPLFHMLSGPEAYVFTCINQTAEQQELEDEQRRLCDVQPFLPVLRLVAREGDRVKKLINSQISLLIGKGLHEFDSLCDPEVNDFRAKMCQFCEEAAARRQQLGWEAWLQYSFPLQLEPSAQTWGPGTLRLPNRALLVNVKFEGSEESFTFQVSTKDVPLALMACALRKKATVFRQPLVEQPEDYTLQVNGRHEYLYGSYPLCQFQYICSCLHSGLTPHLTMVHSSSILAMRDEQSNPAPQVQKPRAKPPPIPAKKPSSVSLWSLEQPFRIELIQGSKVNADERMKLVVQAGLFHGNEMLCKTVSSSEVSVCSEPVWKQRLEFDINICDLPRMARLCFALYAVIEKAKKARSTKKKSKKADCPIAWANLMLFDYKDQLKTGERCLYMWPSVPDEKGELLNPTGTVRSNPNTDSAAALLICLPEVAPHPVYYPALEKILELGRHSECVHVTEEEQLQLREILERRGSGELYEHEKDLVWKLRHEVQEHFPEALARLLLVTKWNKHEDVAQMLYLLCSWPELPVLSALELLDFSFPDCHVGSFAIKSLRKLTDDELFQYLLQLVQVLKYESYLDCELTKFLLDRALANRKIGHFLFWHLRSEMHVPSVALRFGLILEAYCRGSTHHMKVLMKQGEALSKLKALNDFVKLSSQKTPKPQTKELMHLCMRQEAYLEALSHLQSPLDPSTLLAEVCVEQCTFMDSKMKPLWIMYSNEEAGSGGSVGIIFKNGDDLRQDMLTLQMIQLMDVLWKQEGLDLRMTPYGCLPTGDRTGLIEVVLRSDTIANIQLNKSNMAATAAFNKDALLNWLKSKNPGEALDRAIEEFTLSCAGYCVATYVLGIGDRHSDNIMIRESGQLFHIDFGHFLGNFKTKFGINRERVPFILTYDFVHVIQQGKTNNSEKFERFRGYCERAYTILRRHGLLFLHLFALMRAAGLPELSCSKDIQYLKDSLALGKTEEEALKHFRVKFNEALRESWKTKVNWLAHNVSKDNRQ
Chain of PI3Kdelta (P27986 whole entry partner, canonical isoform): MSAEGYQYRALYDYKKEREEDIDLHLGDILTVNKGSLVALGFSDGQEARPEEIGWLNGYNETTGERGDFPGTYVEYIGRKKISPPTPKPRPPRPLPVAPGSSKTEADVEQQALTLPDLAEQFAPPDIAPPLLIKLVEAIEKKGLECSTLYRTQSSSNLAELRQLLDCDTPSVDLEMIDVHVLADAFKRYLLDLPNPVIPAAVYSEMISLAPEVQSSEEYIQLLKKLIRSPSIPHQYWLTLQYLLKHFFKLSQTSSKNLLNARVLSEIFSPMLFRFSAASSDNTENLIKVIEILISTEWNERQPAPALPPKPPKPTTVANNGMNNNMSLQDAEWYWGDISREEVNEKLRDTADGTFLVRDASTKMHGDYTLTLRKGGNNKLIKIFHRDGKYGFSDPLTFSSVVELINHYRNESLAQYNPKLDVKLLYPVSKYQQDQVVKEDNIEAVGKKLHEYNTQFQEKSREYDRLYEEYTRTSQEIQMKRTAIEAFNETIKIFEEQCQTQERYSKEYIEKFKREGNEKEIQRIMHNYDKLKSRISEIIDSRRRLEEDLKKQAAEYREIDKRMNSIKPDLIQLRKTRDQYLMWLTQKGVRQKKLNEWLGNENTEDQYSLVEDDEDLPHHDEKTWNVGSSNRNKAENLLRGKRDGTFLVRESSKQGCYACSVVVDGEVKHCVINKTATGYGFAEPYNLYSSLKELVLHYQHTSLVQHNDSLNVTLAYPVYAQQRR
Chain of PI3Kalpha (P42336 whole entry, canonical isoform): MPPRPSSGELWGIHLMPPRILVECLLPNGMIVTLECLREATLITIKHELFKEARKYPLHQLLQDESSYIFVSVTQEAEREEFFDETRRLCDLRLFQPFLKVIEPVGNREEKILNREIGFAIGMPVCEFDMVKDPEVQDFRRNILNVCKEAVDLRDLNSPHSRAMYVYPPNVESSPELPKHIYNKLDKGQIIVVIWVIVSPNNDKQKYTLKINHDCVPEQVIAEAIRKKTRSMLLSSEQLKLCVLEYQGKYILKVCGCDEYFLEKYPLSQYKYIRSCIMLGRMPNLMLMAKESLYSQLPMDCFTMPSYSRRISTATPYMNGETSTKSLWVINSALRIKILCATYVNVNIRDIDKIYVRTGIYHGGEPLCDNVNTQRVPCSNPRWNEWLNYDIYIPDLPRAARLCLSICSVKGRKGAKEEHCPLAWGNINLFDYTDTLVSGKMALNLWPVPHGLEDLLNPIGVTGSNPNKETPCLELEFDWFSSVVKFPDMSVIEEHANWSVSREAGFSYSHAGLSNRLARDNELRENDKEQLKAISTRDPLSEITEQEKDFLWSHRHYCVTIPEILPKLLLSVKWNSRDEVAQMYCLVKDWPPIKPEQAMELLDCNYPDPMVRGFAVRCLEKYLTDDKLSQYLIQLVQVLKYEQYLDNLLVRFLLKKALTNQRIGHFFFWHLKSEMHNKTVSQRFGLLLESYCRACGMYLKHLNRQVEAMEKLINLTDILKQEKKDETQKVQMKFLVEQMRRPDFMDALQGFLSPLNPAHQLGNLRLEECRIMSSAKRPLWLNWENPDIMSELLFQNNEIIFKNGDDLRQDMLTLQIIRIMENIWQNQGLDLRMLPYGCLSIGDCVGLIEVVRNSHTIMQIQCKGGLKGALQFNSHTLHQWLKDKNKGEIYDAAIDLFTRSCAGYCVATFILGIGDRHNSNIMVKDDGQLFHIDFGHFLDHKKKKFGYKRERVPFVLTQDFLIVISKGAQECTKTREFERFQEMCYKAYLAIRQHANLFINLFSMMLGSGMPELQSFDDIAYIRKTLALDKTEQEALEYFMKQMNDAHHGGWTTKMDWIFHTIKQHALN
Chain of PI3Kalpha (P27986 whole entry partner, canonical isoform): as the sequence (P27986 whole entry partner, canonical isoform) above

As a reminder, the IC50 is the concentration needed to halve the response being measured. With `CCn1c(-c2cnc(C)nc2)nc2c(-c3ccc4c(c3)C(C)(N3CC(C)(F)C3)C(=O)N4)ncnc21` (single isomer, unassigned) [Compound 2-63, (R or S)-5-(9-ethyl-8-(2-methylpyrimidin-5-yl)-9H-purin-6-yl)-3-(3-fluoro-3-methylazetidin-1-yl)-3-methylindolin-2-one], the 50% inhibitory concentration (IC50) at PI3Kdelta was determined as 87 nM. Moreover, the “Relative Selectivity versus PI3Kalpha” value at PI3Kalpha is more than 10.

Consider `CCn1c(-c2cnc(C)nc2)nc2c(-c3ccc4c(c3)C(C)(N3CC(C)(F)C3)C(=O)N4)ncnc21` (single isomer, unassigned) [Compound 2-64, (R or S)-5-(9-ethyl-8-(2-methylpyrimidin-5-yl)-9H-purin-6-yl)-3-(3-fluoro-3-methylazetidin-1-yl)-3-methylindolin-2-one], for which the IC50 on PI3Kdelta came to 6 nM. Besides, on PI3Kalpha, the “Relative Selectivity versus PI3Kalpha” value is on record as more than 10.

As to `CCn1c(-c2cnc(C)nc2)nc2c(-c3ccc4c(c3)C(C)(NCC(C)C)C(=O)N4)ncnc21` (single isomer, unassigned) [Compound 2-65, (R or S)-5-(9-ethyl-8-(2-methylpyrimidin-5-yl)-9H-purin-6-yl)-3-(isobutylamino)-3-methylindolin-2-one], the concentration for half-maximal inhibition (IC50) on PI3Kdelta was found to be 79 nM. For the same compound, on PI3Kalpha, the “Relative Selectivity versus PI3Kalpha” value is given as more than 10.

With `CCn1c(-c2cnc(C)nc2)nc2c(-c3ccc4c(c3)C(C)(NCC(C)C)C(=O)N4)ncnc21` (single isomer, unassigned) [Compound 2-66, (R or S)-5-(9-ethyl-8-(2-methylpyrimidin-5-yl)-9H-purin-6-yl)-3-(isobutylamino)-3-methylindolin-2-one], the IC50 at PI3Kdelta was found to be 1 nM. Also, on PI3Kalpha, the “Relative Selectivity versus PI3Kalpha” value is recorded as more than 10.

For the compound `Cc1ncc(-c2nc3c(-c4ccc5c(c4)C(C)(NCC(C)(C)F)C(=O)N5)ncnc3n2C)cn1` (single isomer, unassigned) [Compound 2-67, (R or S)-3-((2-fluoro-2-methylpropyl)amino)-3-methyl-5-(9-methyl-8-(2-methylpyrimidin-5-yl)-9H-purin-6-yl)indolin-2-one], the half-maximal inhibitory concentration (IC50) at PI3Kdelta stood at 344 nM. Further, on PI3Kalpha, the “Relative Selectivity versus PI3Kalpha” value is given as more than 10.

As for `Cc1ncc(-c2nc3c(-c4ccc5c(c4)C(C)(NCC(C)(C)F)C(=O)N5)ncnc3n2C)cn1` (single isomer, unassigned) [Compound 2-68, (R or S)-3-((2-fluoro-2-methylpropyl)amino)-3-methyl-5-(9-methyl-8-(2-methylpyrimidin-5-yl)-9H-purin-6-yl)indolin-2-one], the IC50 on PI3Kdelta stood at 2 nM. At PI3Kalpha, the “Relative Selectivity versus PI3Kalpha” value was more than 10.

Consider `Cc1ncc(-c2nc3c(-c4ccc5c(c4)C(C)(NCC(C)(F)F)C(=O)N5)ncnc3n2C)cn1` (single isomer, unassigned) [Compound 2-69, (R or S)-3-((2,2-difluoropropyl)amino)-3-methyl-5-(9-methyl-8-(2-methylpyrimidin-5-yl)-9H-purin-6-yl)indolin-2-one], for which the 50% inhibitory concentration (IC50) at PI3Kdelta amounted to 788 nM. In addition, on PI3Kalpha, the “Relative Selectivity versus PI3Kalpha” value is on record as 5.

Turning to `Cc1ncc(-c2nc3c(-c4ccc5c(c4)C(C)(NCC(C)(F)F)C(=O)N5)ncnc3n2C)cn1` (single isomer, unassigned) [Compound 2-70, (R or S)-3-((2,2-difluoropropyl)amino)-3-methyl-5-(9-methyl-8-(2-methylpyrimidin-5-yl)-9H-purin-6-yl)indolin-2-one], on PI3Kdelta, the half-inhibitory concentration (IC50) came to 4 nM. The “Relative Selectivity versus PI3Kalpha” value at PI3Kalpha was more than 10.

For `CCn1c(-c2cnc(C)nc2)nc2c(-c3ccc4c(c3)C(C)(NCC3(F)COC3)C(=O)N4)ncnc21` (single isomer, unassigned) [Compound 2-71, (R or S)-5-(9-ethyl-8-(2-methylpyrimidin-5-yl)-9H-purin-6-yl)-3-(((3-fluorooxetan-3-yl)methyl)amino)-3-methylindolin-2-one], on PI3Kdelta, the IC50 turned out to be 219 nM. At PI3Kalpha, the “Relative Selectivity versus PI3Kalpha” value was more than 10.

For the compound `CCn1c(-c2cnc(C)nc2)nc2c(-c3ccc4c(c3)C(C)(NCC3(F)COC3)C(=O)N4)ncnc21` (single isomer, unassigned) [Compound 2-72, (R or S)-5-(9-ethyl-8-(2-methylpyrimidin-5-yl)-9H-purin-6-yl)-3-(((3-fluorooxetan-3-yl)methyl)amino)-3-methylindolin-2-one], the IC50 at PI3Kdelta was found to be 3 nM. Further, the “Relative Selectivity versus PI3Kalpha” value at PI3Kalpha is recorded as more than 10.

For `CCn1c(-c2cnc(C)nc2)nc2c(-c3ccc4c(c3)C(C)(N3CC(OC)C3)C(=O)N4)ncnc21` (single isomer, unassigned) [Compound 2-78, (R or S)-5-(9-ethyl-8-(2-methylpyrimidin-5-yl)-9H-purin-6-yl)-3-(3-methoxyazetidin-1-yl)-3-methylindolin-2-one], the 50% inhibitory concentration (IC50) at PI3Kdelta was 238 nM. Moreover, the “Relative Selectivity versus PI3Kalpha” value at PI3Kalpha was more than 10.

For the compound `CCn1c(-c2cnc(C)nc2)nc2c(-c3ccc4c(c3)C(C)(N3CC(OC)C3)C(=O)N4)ncnc21` (single isomer, unassigned) [Compound 2-79, (R or S)-5-(9-ethyl-8-(2-methylpyrimidin-5-yl)-9H-purin-6-yl)-3-(3-methoxyazetidin-1-yl)-3-methylindolin-2-one], on PI3Kdelta, the IC50 was determined as 15 nM. In addition, the “Relative Selectivity versus PI3Kalpha” value on PI3Kalpha is listed as more than 10.

Turning to `CCn1c(-c2cnc(C)nc2)nc2c(-c3ccc4c(c3)C(C)(N3CC(C)(O)C3)C(=O)N4)ncnc21` (single isomer, unassigned) [Compound 2-80, (R or S)-5-(9-ethyl-8-(2-methylpyrimidin-5-yl)-9H-purin-6-yl)-3-(3-hydroxy-3-methylazetidin-1-yl)-3-methylindolin-2-one], the half-inhibitory concentration (IC50) at PI3Kdelta came to 7 nM. Moreover, on PI3Kalpha, the “Relative Selectivity versus PI3Kalpha” value is more than 10.

Consider `CCn1c(-c2cnc(C)nc2)nc2c(-c3ccc4c(c3)C(C)(N3CC(C)(O)C3)C(=O)N4)ncnc21` (single isomer, unassigned) [Compound 2-81, (R or S)-5-(9-ethyl-8-(2-methylpyrimidin-5-yl)-9H-purin-6-yl)-3-(3-hydroxy-3-methylazetidin-1-yl)-3-methylindolin-2-one], for which the IC50 on PI3Kdelta is 26 nM. Further, the “Relative Selectivity versus PI3Kalpha” value on PI3Kalpha is more than 10.

As for `CCn1c(-c2cnc(C)nc2)nc2c(-c3ccc4c(c3)C(C)(N[C@H]3C[C@H](OC)C3)C(=O)N4)ncnc21` (single isomer, unassigned) [Compound 2-82, 5-(9-ethyl-8-(2-methylpyrimidin-5-yl)-9H-purin-6-yl)-3-(((1R,3R)-3-methoxycyclobutyl)amino)-3(R or S)-methylindolin-2-one], the 50% inhibitory concentration (IC50) on PI3Kdelta worked out at 1570 nM. In addition, the “Relative Selectivity versus PI3Kalpha” value at PI3Kalpha stood at 8.

Turning to `CCn1c(-c2cnc(C)nc2)nc2c(-c3ccc4c(c3)C(C)(N[C@H]3C[C@H](OC)C3)C(=O)N4)ncnc21` (single isomer, unassigned) [Compound 2-83, 5-(9-ethyl-8-(2-methylpyrimidin-5-yl)-9H-purin-6-yl)-3-(((1R,3R)-3-methoxycyclobutyl)amino)-3(R or S)-methylindolin-2-one], the half-inhibitory concentration (IC50) on PI3Kdelta turned out to be 21 nM. Moreover, on PI3Kalpha, the “Relative Selectivity versus PI3Kalpha” value is given as more than 10.

For `CCn1c(-c2cnc(C)nc2)nc2c(-c3ccc4c(c3)C3(CCN(C(=O)C5CC5)C3)C(=O)N4)ncnc21` (single isomer, unassigned) [Compound 3-5, (R or S)-1′-(cyclopropanecarbonyl)-5-(9-ethyl-8-(2-methylpyrimidin-5-yl)-9H-purin-6-yl)spiro[indoline-3,3′-pyrrolidin]-2-one], the IC50 on PI3Kdelta worked out at 63 nM. Further, at PI3Kalpha, the “Relative Selectivity versus PI3Kalpha” value is recorded as more than 10.

Regarding `CCn1c(-c2cnc(C)nc2)nc2c(-c3ccc4c(c3)C3(CCN(C(=O)C5CC5)C3)C(=O)N4)ncnc21` (single isomer, unassigned) [Compound 3-6, (R or S)-1′-(cyclopropanecarbonyl)-5-(9-ethyl-8-(2-methylpyrimidin-5-yl)-9H-purin-6-yl)spiro[indoline-3,3′-pyrrolidin]-2-one], on PI3Kdelta, the 50% inhibitory concentration (IC50) stood at 26 nM. Further, at PI3Kalpha, the “Relative Selectivity versus PI3Kalpha” value is more than 10.

For `CCN1C(=O)C2(CCCN2C(=O)C2CC2)c2cc(-c3ncnc4c3nc(-c3cnc(C)nc3)n4CC)ccc21` (single isomer, unassigned) [Compound 3-9, (R or S)-1′-(cyclopropanecarbonyl)-1-ethyl-5-(9-ethyl-8-(2-methylpyrimidin-5-yl)-9H-purin-6-yl)spiro[indoline-3,2′-pyrrolidin]-2-one], the IC50 at PI3Kdelta amounted to 5 nM. In addition, the “Relative Selectivity versus PI3Kalpha” value at PI3Kalpha was more than 10.

For the compound `CCn1c(-c2cnc(C)nc2)nc2c(-c3ccc4c(c3)C3(CCCN3C(=O)C3CC3)C(=O)N4C(C)C)ncnc21` (single isomer, unassigned) [Compound 3-10, (R or S)-1′-(cyclopropanecarbonyl)-5-(9-ethyl-8-(2-methylpyrimidin-5-yl)-9H-purin-6-yl)-1-isopropylspiro[indoline-3,2′-pyrrolidin]-2-one], the IC50 at PI3Kdelta amounted to 3 nM. Further, the “Relative Selectivity versus PI3Kalpha” value at PI3Kalpha is more than 10.

Take `Cc1ncc(-c2nc3c(-c4ccc5c(c4)C4(CCCN4C(C)C)C(=O)N5)ncnc3n2C)cn1` (single isomer, unassigned) [Compound 3-13, (R or S)-1′-isopropyl-5-(9-methyl-8-(2-methylpyrimidin-5-yl)-9H-purin-6-yl)spiro[indoline-3,2′-pyrrolidin]-2-one]: the IC50 on PI3Kdelta came to 45 nM. The “Relative Selectivity versus PI3Kalpha” value at PI3Kalpha is on record as more than 10.

For the compound `Cc1ncc(-c2nc3c(-c4ccc5c(c4)C4(CCCN4C(C)C)C(=O)N5)ncnc3n2C)cn1` (single isomer, unassigned) [Compound 3-14, (R or S)-1′-isopropyl-5-(9-methyl-8-(2-methylpyrimidin-5-yl)-9H-purin-6-yl)spiro[indoline-3,2′-pyrrolidin]-2-one], the IC50 on PI3Kdelta was 2 nM. Besides, the “Relative Selectivity versus PI3Kalpha” value on PI3Kalpha was more than 10.

On to `CCn1c(C(F)F)nc2c(-c3ccc4c(c3)C3(CCCN3C(=O)C3CC3)C(=O)N4)ncnc21` (single isomer, unassigned) [Compound 3-15, (R or S)-1′-(cyclopropanecarbonyl)-5-(8-(difluoromethyl)-9-ethyl-9H-purin-6-yl)spiro[indoline-3,2′-pyrrolidin]-2-one], for which the IC50 on PI3Kdelta came to 5 nM. Also, the “Relative Selectivity versus PI3Kalpha” value at PI3Kalpha was more than 10.
